Assays:
[1] = tested on: skin from 8-month old pigmented pigs; assay: Pig skin organ culture, 14C-thiouracil incorporation (new melanin synthesis); type: cell-based; conditions: 1.4 mg/ml (10 mM), pig skin biopsies, three day incubation
Description: Organ Culture Method Waste skin from 8-month old pigmented pigs was shaved to remove hairs and washed thoroughly to remove debris and reduce microbial content. The cleaned skin was then dermatomed to approximately 1-mm thickness×75-cm^2 and placed in tissue culture flasks containing Dulbecco's Modified Eagle's Medium (DMEM Cat#1188507) containing penicillin (100-units/ml), streptomycin (100-ug/ml), kanamycin (200-ug/ml), […]-mM), and fungizone (0.5-ug/ml). All flasks were incubated overnight at 37° C. in the presence of 5% carbon dioxide. This allowed the skin to equilibrate for 18 hours prior to the addition of melanin inhibitors. Areas of the skin that had scratches, erythema, or uneven pigmentation were discarded. The following morning, the skin was punched into 4-mm diameter biopsies and transferred to a 96-well tissue culture plate. To each well containing a biopsy, 180-microliters of fresh DMEM containing penicillin (100-units/ml), streptomycin (100-ug/ml), […]-mM), hydrocortisone (100-μg/ml) and 0.4-μCi/ml ^14C-thiouracil (Moravek Biochemicals) was added along with 20-microliters of natural extract. […] Samples were mixed several times to ensure even dispersion, sealed, and assessed for radiolabel incorporation using a Packard TopCount scintillation counter. […]

[2] = tested on: MelanoDerm tissue equivalent model (MEL-300) containing melanocytes obtained from dark skin individuals; assay: MelanoDerm tissue equivalent model, melanin content; type: cell-based, human; conditions: 14 micro-g/ml (100 uM); 14-day period, relative to untreated or vehicle control
Description: MelanoDerm Tissue Model Method
A MelanoDerm tissue equivalent model (MEL-300 from Mat Tek, Ashland, Mass.) containing melanocytes obtained from dark skin individuals was utilized to confirm the results obtained in the pig organ culture. MelanoDerms were cultured as per the supplier instructions.
[…] Positive control was included, i.e., kojic acid, which is a known skin lightening agent. During each medium change, a portion of the waste was analyzed for levels of lactate dehydrogenase as an indicator of cellular toxicity and stress. At no time was the level of lactate dehydrogenase above the vehicle control solvents (water or ethanol).
Determination of melanin content within each MelanoDerm was performed using the assay provided by the manufacturer. Each MelanoDerm was homogenized in 450-microliters of buffer (1% SDS, 0.05-mM EDTA, 10-mM Tris-HCl, pH 6.8) containing 20-microliters of Proteinase K (5 mg/ml) and incubated overnight at 45° C. […] The optical density of the top phase was determined (405-nm) following extraction of the sample with 100-microliters of chloroform:methanol (2:1) and centrifugation (10,000 g) for ten minutes. Optical density readings relative to the untreated or vehicle control (water or ethanol) were then calculated.

O=c1cc(CO)occ1O [Kojic Acid]
% Radiolabel Reduction [1]: 56% | % Melanin Reduction [2]: 9.5%

From patent US7396534B2, “Cosmetic compositions containing Nigrospora sphaerica extracts” (Unilever Home & Personal Care USA, division of Conopco, Inc., priority 2004, dated 2008)
